Values quoted from earlier work as cited in patent US11723862B2, “Dosage form with sustained release melatonin pellets” (SOCIÉTÉ DES PRODUITS NESTLÉ S.A., priority 2020, dated 2023).

Conditions: above pH=4.4

COc1ccc2[nH]cc(CCNC(C)=O)c2c1 [melatonin]
aqueous solubility: low
